This passage reports inhibition zone results from patent US11926598B1, “1-(4-nitrobenzylideneamino)-5-phenylimidazolidine-2,4-dione as an antimicrobial compound” (KING FAISAL UNIVERSITY, priority 2023, dated 2024).

Format in all cases: cell-based
One assay deals with Bacillus Cereus. As to the kind of experiment: Agar plate disc-diffusion, antibacterial inhibition zone. To be noted: Bacillus Cereus (Gram positive). The method, then:
(§1) The agar plate disc-diffusion method was applied. […] The discs were then placed onto the surface of agar plates (nutrient agar for bacteria and Sabouraud's dextrose agar for fungi) seeded with the test organism. Each plate contained 15 mL of the agar medium, previously seeded with 0.2 mL of the broth culture of each organism pregrown for 18 hours. The plates were incubated at 37° C. for 48 hours, and 72 hours for fungi. The inhibition zones was measured in millimeter. Discs impregnated with DMSO were used as a control, and its inhibition zone was subtracted from the tested compound actual inhibition zone.
(§2) The results of the antimicrobial testing can be observed in Tables 1 and 2, below, with ciprofloxacin serving as a reference.

A further assay relates to Pseudomonas aeruginosa. The description is as above. To be noted: Pseudomonas aeruginosa (Gram negative). How it is done: as §1, §2
The test system of the next assay is Staphylococcus aureus. Described as above. To be noted: Staphylococcus aureus (Gram positive). How it is done:
as §1, §2

Another assay concerns Escherichia coli. The assay is described as above. To be noted: Escherichia coli (Gram negative). How it is done:
as §1, §2

The test system of the next assay is Aspergillus flavus. As to the kind of experiment: Agar plate disc-diffusion, antifungal inhibition zone. How it is done: as §1, §2
For orientation: A growth-free zone around the sample is the usual read-out of agar diffusion tests.

In assay [1] the test system is Chrysosporium keratinophilum. The assay is described as above. How it is done:
as §1, §2

[2] abbreviates: A = concentration of comp. = 10,000 μL.
Where [3] appears, read: B = concentration of comp. = 30.000 μL.
The mark [4] stands for this setting: C = concentration of comp. = 50,000 μL.

As for `O=C1NC(=O)N(N=Cc2ccc([N+](=O)[O-])cc2)C1c1ccccc1` (stereo not drawn) [Compound 4, 1-(4-nitrobenzylideneamino)-5-phenylimidazolidine-2,4-dione], the inhibition zone in the assay with Bacillus Cereus (setting [2]) is recorded as 25 millimeter; in the assay on Bacillus Cereus (setting [3]), 27 millimeter; with Bacillus Cereus (setting [4]) it was 37 millimeter; in the assay with Pseudomonas aeruginosa (setting [2]), 25 millimeter; with Pseudomonas aeruginosa (setting [3]), 27 millimeter; in the assay on Pseudomonas aeruginosa (setting [4]), 40 millimeter. The inhibition zone with Staphylococcus aureus (setting [2]) came to 19 millimeter; with Staphylococcus aureus (setting [3]), 24 millimeter; with Staphylococcus aureus (setting [4]), 30 millimeter; with Escherichia coli (setting [2]), 30 millimeter; in the assay with Escherichia coli (setting [3]), 35 millimeter; with Escherichia coli (setting [4]), 51 millimeter. The inhibition zone in the assay with Aspergillus flavus (setting [2]) is 19 millimeter; in the assay on Aspergillus flavus (setting [3]), 24 millimeter; with Aspergillus flavus (setting [4]) it was 35 millimeter; in assay [1] (setting [2]) it was 26 millimeter; in assay [1] (setting [3]), 28 millimeter; in assay [1] (setting [4]) it was 50 millimeter.
In the case of `O=C(O)c1cn(C2CC2)c2cc(N3CCNCC3)c(F)cc2c1=O` [Cip., ciprofloxacin], the inhibition zone in the assay on Bacillus Cereus (setting [2]) is 29 millimeter; in the assay with Bacillus Cereus (setting [3]), 30 millimeter; in the assay on Bacillus Cereus (setting [4]), 42 millimeter; with Pseudomonas aeruginosa (setting [2]), 29 millimeter; in the assay on Pseudomonas aeruginosa (setting [3]), 30 millimeter; in the assay with Pseudomonas aeruginosa (setting [4]), 53 millimeter. For the same compound, the inhibition zone in the assay with Staphylococcus aureus (setting [2]) is recorded as 43 millimeter; in the assay on Staphylococcus aureus (setting [3]), 44 millimeter; in the assay on Staphylococcus aureus (setting [4]), 53 millimeter; with Escherichia coli (setting [2]), 30 millimeter; in the assay with Escherichia coli (setting [3]) it was 39 millimeter; in the assay with Escherichia coli (setting [4]), 60 millimeter. In addition, the inhibition zone in the assay on Aspergillus flavus (setting [2]) is listed as 29 millimeter; in the assay with Aspergillus flavus (setting [3]), 30 millimeter; in the assay with Aspergillus flavus (setting [4]), 42 millimeter; in assay [1] (setting [2]), 29 millimeter; in assay [1] (setting [3]), 30 millimeter; in assay [1] (setting [4]) it was 53 millimeter.
